According to patent publication US4851387A, “5-substituted amino-4-hydroxy-pentanoic acid derivatives and their use” (Banyu Pharmaceutical Co., Ltd., priority 1986, dated 1989):

target: T1, renin (human plasma) (Homo sapiens, UniProt P00797); test: Test example for renin inhibiting activities: angiotensin I formation in human plasma, measured by radio immunoassay; assay type: biochemical; details: 0.2M sodium phosphate buffer pH7.4, 37° C. for one hour, read-out: IC50 (mol), 50% inhibition concentration of renin inhibiting activity
T1 construct: from tissue; host or cells: human plasma
T1 sequence (P00797 67-406): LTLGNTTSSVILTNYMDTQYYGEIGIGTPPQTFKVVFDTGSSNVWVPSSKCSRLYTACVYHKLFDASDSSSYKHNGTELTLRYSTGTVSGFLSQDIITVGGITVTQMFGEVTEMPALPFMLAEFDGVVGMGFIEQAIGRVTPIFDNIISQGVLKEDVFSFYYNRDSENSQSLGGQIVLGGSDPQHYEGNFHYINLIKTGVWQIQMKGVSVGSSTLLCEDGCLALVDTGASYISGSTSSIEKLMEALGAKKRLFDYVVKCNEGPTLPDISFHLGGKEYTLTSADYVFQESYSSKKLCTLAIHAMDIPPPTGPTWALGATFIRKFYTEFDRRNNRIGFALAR
Protocol: To 156 μl of a 0.2M sodium phosphate buffer solution (pH7.4), 40 μl of a solution mixture of 34 mM 8-hydroxyquinoline and 100 mM disodium ethylenediaminetetraacetate, 4 μl of dimethyl sulfoxide or a dimethyl sulfoxide solution of an inhibitor and 200 μl of human plasma were added and reacted at 37° C. for one hour. Then, pepstatin was added thereto to terminate the reaction, and the amount of the resulting angiotension I was measured by radio immunoassay whereby the inhibiting activity was determined.

With `CCCCC(NC(=O)C(Cc1cccc2ccccc12)NC(=O)OCc1ccccc1)C(=O)N[C@@H](CC(C)C)[C@@H](O)CC(CCCO)C(=O)NCC(C)C` (mixture of isomers) [Example 14(8), (2RS,4S,5S)-5-(L-N-benzyloxycarbonylnaphthylalanyl-L-norleucyl)amino-4-hydroxy-2-(3-hydroxypropyl)-7-methyl-octanoic acid isobutylamide] as the compound, how does the IC50 read?
Its IC50 is 5 nM.

Which IC50 does the source give for `CCCCC(NC(=O)C(Cc1cccc2ccccc12)NC(=O)OCc1ccccc1)C(=O)N[C@@H](CC(C)C)[C@@H](O)CC(C(=O)NCC(C)C)C(C)C` (mixture of isomers) [comparative compound, (2RS,4S,5S)-5-(L-N-benzyloxycarbonyl-naphthylalanyl-L-norleucyl)amino-4-hydroxy-2-isopropyl-7-methyl-octanoic acid isobutylamide, reference compound] here?
The IC50 was 40 nM.

With “(2RS,4S,5S)-5-(L-N-benzyloxycarbonylnaphthylalanyl-L-norleucyl)amino-4-hydroxy-2-(2-hydroxyethyl)-7-methyloctanoic acid isobutylamide [Example 15(3)]” as the compound, how does the IC50 read?
Its IC50 is 7 nM.
